What all share (assay type): in vivo
Series [1] has as its system Echinochloa oryzacola Vasing. Kind of series: Test Example 1: herbicidal activity, application before weed generation in submerged conditions (symbol A). As to conditions: application herbicide amount 320 g/ha. The method, boiled down:
(§1)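 Mixed weed seeds sown in alluvial soil under 4 cm of water, with rice seedlings at the 2.5-leaf stage added. Same-day treatment: emulsion diluted to a set herbicide amount onto the water. Three weeks at 25–30 °C, then graded on a six-step scale.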

The test system of another series is Monochoria vaginalis. Kind of series: Test Example 1: herbicidal activity, application before weed generation in submerged conditions (symbol C). As to conditions: application herbicide amount 320 g/ha. The method, boiled down:
as §1

The test system of series [2] is directly sowed rice plant. Kind of series: Test Example 3: effect on crop by foliage application, Wagner pot (symbol b). The note with it: application herbicide amount 320 g/ha. The method, boiled down: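 Plants are raised from seed in flooded paddy conditions: water stands 0.1–0.5 cm over alluvial soil, and the pot is kept in a greenhouse at 25–30 °C. Species sown are barnyardgrass (E. crus-galli var. crus-galli), Leptochloa chinensis, Cyperus difformis and rice.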

For the next series, the system named is Digitaria ciliaris. The series is described as follows: Test Example 4: herbicidal effect by soil treatment (symbol F). As to conditions: application herbicide amount 320 g/ha. The method, boiled down:
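Seeds were sown in sterilized diluvial soil, covered with about 1.5 cm of soil, and the soil surface was sprayed with a water-diluted emulsion of the compound at a predetermined rate. Plants grew in a greenhouse at 25° C. to 30° C.; effects were scored visually 3 weeks after application.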

Series [3] has as its system soybean. Kind of series: Test Example 4: effect on crop by soil treatment (symbol d). The note with it: application herbicide amount 320 g/ha. The method, boiled down: (§2)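 Sterilized diluvial soil, spot sowing, ~1.5 cm soil cover; greenhouse 25–30° C.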
The test system of series [4] is wheat. The series is described as follows: Test Example 4: effect on crop by soil treatment (symbol e). The note with it: application herbicide amount 320 g/ha. The method, boiled down:
as §2

The next series concerns rapeseed. The series is described as follows: Test Example 4: effect on crop by soil treatment (symbol g). As to conditions: application herbicide amount 320 g/ha. The method, boiled down: as §2
In series [5] the test system is Echinochloa crus-galli var. crus-galli. The series is described as follows: Test Example 5: herbicidal effect by foliage application, plastic box (symbol H). The note with it: 320 g/ha, 3 weeks after application. The essentials:
(§3)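 Leaf-applied emulsion, water-diluted to a preset herbicide dose, on two-week-old seedlings raised in a 25° C. to 30° C. greenhouse; injury rated at 3 weeks using earlier criteria.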

In the next series the test system is Lolium multiflorum Lam. Kind of series: Test Example 5: herbicidal effect by foliage application, plastic box (symbol K). As to conditions: 320 g/ha, 3 weeks after application. The essentials: as §3
Another series has as its system Amaranthus retroflexus. The series is described as follows: Test Example 5: herbicidal effect by foliage application, plastic box (symbol N). The note with it: 320 g/ha, 3 weeks after application. The essentials:
as §3

For another series, the system named is Chenopodium album. Kind of series: Test Example 5: herbicidal effect by foliage application, plastic box (symbol O). As to conditions: 320 g/ha, 3 weeks after application. The essentials:
as §3

A further series relates to Galium spurium. The series is described as follows: Test Example 5: herbicidal effect by foliage application, plastic box (symbol Q). The note with it: 320 g/ha, 3 weeks after application. The essentials: as §3
The subject of a further series is Veronica persica. Kind of series: Test Example 5: herbicidal effect by foliage application, plastic box (symbol R). As to conditions: 320 g/ha, 3 weeks after application. The essentials: as §3
The test system of series [6] is soybean. Kind of series: Test Example 5: effect on crop by foliage application, plastic box (symbol d). The note with it: 320 g/ha, 3 weeks after application. The method, boiled down: (§4)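 Greenhouse test at 25° C. to 30° C. Seeds of crops and weeds were spot-sown in boxes of sterilized diluvial soil under roughly 1.5 cm soil cover, then grown for foliage treatment.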

For series [7], the system named is wheat. The series is described as follows: Test Example 5: effect on crop by foliage application, plastic box (symbol e). As to conditions: 320 g/ha, 3 weeks after application. The method, boiled down:
as §4

The test system of another series is beet. Kind of series: Test Example 5: effect on crop by foliage application, plastic box (symbol f). The note with it: 320 g/ha, 3 weeks after application. The essentials: as §4

In the case of `CON=C(C)CC1CC(OC(=O)C(C)(C)C)=C(c2c(C)cc(C)cc2C)C1=O` (centres unmarked) [1-004, 2-mesityl-4-{2-(methoxyimino)propyl}-3-oxocyclopent-1-en-1-yl pivalate], in [1], the “Herbicidal effect grade, A: Echinochloa oryzacola Vasing.” value is 5 (Herbicidal ratio of 90% or more (almost completely withered)). Moreover, the “Herbicidal effect grade, C: Monochoria vaginalis” value with Monochoria vaginalis is 4 (Herbicidal ratio of 70% or higher and lower than 90%). Further, the “effect on crop b (directly sowed rice plant), grade 0-5” value in series [2] is 5 (Herbicidal ratio of 90% or more (almost completely withered)). Further, the “F (Digitaria ciliaris) herbicidal effect grade” value in the series on Digitaria ciliaris is on record as 5 (Herbicidal ratio of 90% or more (almost completely withered)). Besides, the “d (soybean) effect on crop grade” value in the series with soybean [3] is 3 (Herbicidal ratio of 40% or higher and lower than 70%). Besides, the “e (wheat) effect on crop grade” value in the series with wheat [4] is 3 (Herbicidal ratio of 40% or higher and lower than 70%). In addition, in the series with rapeseed, the “g (rapeseed) effect on crop grade” value is 4 (Herbicidal ratio of 70% or higher and lower than 90%). Moreover, the “H: Echinochloa crus-galli var. crus-galli, herbicidal effect grade” value in series [5] was 5 (Herbicidal ratio of 90% or more (almost completely withered)). The “K: Lolium multiflorum Lam., herbicidal effect grade” value in the series with Lolium multiflorum Lam. is given as 5 (Herbicidal ratio of 90% or more (almost completely withered)). The “N: Amaranthus retroflexus, herbicidal effect grade” value in the series with Amaranthus retroflexus is 4 (Herbicidal ratio of 70% or higher and lower than 90%). Besides, the “O: Chenopodium album, herbicidal effect grade” value in the series with Chenopodium album is 3 (Herbicidal ratio of 40% or higher and lower than 70%). Further, the “Q: Galium spurium, herbicidal effect grade” value in the series with Galium spurium is 3 (Herbicidal ratio of 40% or higher and lower than 70%). For the same compound, the “R: Veronica persica, herbicidal effect grade” value with Veronica persica is 4 (Herbicidal ratio of 70% or higher and lower than 90%). In addition, the “d: soybean, effect on crop grade” value in the series on soybean [6] is 4 (Herbicidal ratio of 70% or higher and lower than 90%). Besides, the “e: wheat, effect on crop grade” value in the series with wheat [7] is 5 (Herbicidal ratio of 90% or more (almost completely withered)). Also, the “f: beet, effect on crop grade” value in the series on beet is 3 (Herbicidal ratio of 40% or higher and lower than 70%).
For the compound `CON=C(CC1CC(O)=C(c2c(C)cc(-n3cc(Cl)cn3)cc2C)C1=O)C1CC1` (centres unmarked) [9-007], the “A (Echinochloa oryzacola Vasing.) herbicidal effect grade” value in [1] was 5 (Herbicidal ratio of 90% or more (almost completely withered)). In the series on Monochoria vaginalis, the “C (Monochoria vaginalis) herbicidal effect grade” value is recorded as 0 (Herbicidal ratio of 5% or lower (almost no effect)). Further, in [2] (Table 24), the “b (directly sowed rice plant) effect on crop grade” value is listed as 5 (Herbicidal ratio of 90% or more (almost completely withered)). Further, the “Herbicidal effect grade, F: Digitaria ciliaris” value in the series with Digitaria ciliaris is listed as 5 (Herbicidal ratio of 90% or more (almost completely withered)). In addition, in the series with soybean [3], the “Effect on crop grade, d: soybean” value is on record as 0 (Herbicidal ratio of 5% or lower (almost no effect)). Further, the “Effect on crop grade, e: wheat” value with wheat [4] was 0 (Herbicidal ratio of 5% or lower (almost no effect)). Further, the “Effect on crop grade, g: rapeseed” value with rapeseed was 0 (Herbicidal ratio of 5% or lower (almost no effect)). Further, the “H: Echinochloa crus-galli var. crus-galli, herbicidal effect grade” value in series [5] is 5 (Herbicidal ratio of 90% or more (almost completely withered)). In addition, the “K: Lolium multiflorum Lam., herbicidal effect grade” value in the series on Lolium multiflorum Lam. is on record as 5 (Herbicidal ratio of 90% or more (almost completely withered)). In the series with Amaranthus retroflexus, the “N: Amaranthus retroflexus, herbicidal effect grade” value is 0 (Herbicidal ratio of 5% or lower (almost no effect)). For the same compound, in the series with Chenopodium album, the “O: Chenopodium album, herbicidal effect grade” value was 3 (Herbicidal ratio of 40% or higher and lower than 70%). In addition, in the series with Galium spurium, the “Q: Galium spurium, herbicidal effect grade” value is 1 (Herbicidal ratio of 5% or higher and lower than 20%). The “R: Veronica persica, herbicidal effect grade” value in the series on Veronica persica is 4 (Herbicidal ratio of 70% or higher and lower than 90%). Moreover, the “d: soybean, effect on crop grade” value with soybean [6] is given as 0 (Herbicidal ratio of 5% or lower (almost no effect)). In the series on wheat [7], the “e: wheat, effect on crop grade” value is 4 (Herbicidal ratio of 70% or higher and lower than 90%). In addition, the “f: beet, effect on crop grade” value in the series on beet is 0 (Herbicidal ratio of 5% or lower (almost no effect)).
